Data from article PMC11748363, “Antimicrobial and Antiproliferative Properties of 2‐Phenyl‐N‐(Pyridin‐2‐yl)acetamides” (Chemical Biology & Drug Design, 2025).
Values after ≈ are worked out from the molar mass of the structure shown. Like-named read-outs stand apart in the source and are kept apart here.

How the values were obtained:
[1] = system: Aspergillus fumigatus ATCC 204305; assay: Antifungal microdilution broth MIC, AF
[2] = system: Mycolicibacterium smegmatis DSM 43465; assay: Antimycobacterial microdilution broth MIC (resazurin), M. smegmatis; assay type: cell-based; conditions: DSM43465, read-out: MIC M. smegmatis
[3] = system: Pseudomonas aeruginosa CCM 3955, ATCC 27853; assay: Antibacterial microdilution broth MIC, PA; assay type: cell-based
[4] = system: Candida tropicalis CCM 8264, ATCC 750; assay: Antifungal microdilution broth MIC, CT
[5] = system: Acinetobacter baumannii DSM 30007, ATCC 19606; assay: Antibacterial microdilution broth MIC, ACI; assay type: cell-based
[6] = system: Enterococcus faecalis CCM 4224, ATCC 29212; assay: Antibacterial microdilution broth MIC, EF; assay type: cell-based
HepG2 cell line = assay: Cytotoxicity CellTiter 96, HepG2; assay type: cell-based, human; conditions: Homo sapiens, HepG2, 24 h, 24 h incubation; ^c compound precipitated in the testing medium; ^d over the limit of tested concentrations
[7] = system: Staphylococcus epidermidis CCM 4418, ATCC 12228; assay: Antibacterial microdilution broth MIC, SE; assay type: cell-based
[8] = system: Candida albicans CCM 8320, ATCC 24433; assay: Antifungal microdilution broth MIC, CA
[9] = system: Staphylococcus aureus subsp. aureus CCM 4750, ATCC 43300 (MRSA); assay: Antibacterial microdilution broth MIC, MRSA; assay type: cell-based; conditions: Staphylococcus aureus
[10] = system: Trichophyton interdigitale CCM 8377, ATCC 9533; assay: Antifungal microdilution broth MIC, TI; conditions: Trichophyton interdigitale
[11] = system: Escherichia coli CCM 3954, ATCC 25922; assay: Antibacterial microdilution broth MIC, EC; assay type: cell-based
[12] = system: Candida parapsilosis CCM 8260, ATCC 22019; assay: Antifungal microdilution broth MIC, CP; conditions: Lodderomyces parapsilosis
[13] = system: Klebsiella pneumoniae CCM 4415, ATCC 10031; assay: Antibacterial microdilution broth MIC, KP
[14] = system: Mycobacterium tuberculosis H37Ra; assay: Antimycobacterial microdilution broth MIC (resazurin), Mtb H37Ra; assay type: cell-based; conditions: for MIC: Mycobacterium tuberculosis, H37RA, read-out: MIC Mtb H37Ra; for SI (selectivity index): SI = HepG2 IC50 (μM)/MIC MtbH37Ra (μM), calculated for compounds with MIC ≤ 31.25 μg/mL
[15] = system: Lichtheimia corymbifera CCM 8077; assay: Antifungal microdilution broth MIC, LC
[16] = system: Staphylococcus aureus CCM 4223, ATCC 29213; assay: Antibacterial microdilution broth MIC, SA; assay type: cell-based; conditions: Staphylococcus aureus
[17] = system: Aspergillus flavus CCM 8363; assay: Antifungal microdilution broth MIC, AFla
[18] = system: Candida krusei CCM 8271, ATCC 6258; assay: Antifungal microdilution broth MIC, CK; conditions: Pichia kudriavzevii
[19] = system: Mycolicibacterium aurum DSM 43999; assay: Antimycobacterial microdilution broth MIC (resazurin), M. aurum; assay type: cell-based; conditions: DSM43999, read-out: MIC M. aurum
[20] = ATCC204305, 24 h, read-out: MIC AF 24h
[21] = ATCC204305, 48 h, read-out: MIC AF 48h
[22] = CCM8077, 24 h, read-out: MIC LC 24h
[23] = CCM8077, 48 h, read-out: MIC LC 48h
[24] = CCM8363, 24 h, read-out: MIC AFla 24h
[25] = CCM8363, 48 h, read-out: MIC AFla 48h

SMILES | MIC [1, 20] [µM] | MIC [1, 21] [µM] | MIC [2] [µg/mL] | MIC ([3]; 24 h, read-out: MIC PA 24h) [µM] | MIC ([3]; 48 h, read-out: MIC PA 48h) [µM] | MIC ([4]; 24 h, read-out: MIC CT 24h) [µM] | MIC ([4]; 48 h, read-out: MIC CT 48h) [µM] | MIC ([5]; 24 h, read-out: MIC ACI 24h) [µM] | MIC ([5]; 48 h, read-out: MIC ACI 48h) [µM] | MIC ([6]; 24 h, read-out: MIC EF 24h) [µM] | MIC ([6]; 48 h, read-out: MIC EF 48h) [µM] | IC50 (HepG2 cell line) [µM] | MIC ([7]; 24 h, read-out: MIC SE 24h) [µM] | MIC ([7]; 48 h, read-out: MIC SE 48h) [µM] | MIC ([8]; 24 h, read-out: MIC CA 24h) [µM] | MIC ([8]; 48 h, read-out: MIC CA 48h) [µM] | MIC ([9]; 24 h, read-out: MIC MRSA 24h) [µM] | MIC ([9]; 48 h, read-out: MIC MRSA 48h) [µM] | MIC ([10]; 72 h, read-out: MIC TI 72h) [µM] | MIC ([10]; 120 h, read-out: MIC TI 120h) [µM] | further results
O=C(Cc1ccc(C(F)(F)F)cc1)Nc1ccc(Cl)cn1 [Compound 29] | > 500 | > 500 | > 500 | > 500 | > 500 | > 500 | > 500 | > 500 | > 500 | > 500 | > 500 | > 50 | 250 (≈ 78.7 µg/mL) | 250 (≈ 78.7 µg/mL) | > 500 | > 500 | > 500 | > 500 | > 500 | > 500 | MIC ([11]; 24 h, read-out: MIC EC 24h): > 500 µM; MIC ([11]; 48 h, read-out: MIC EC 48h): > 500 µM; MIC ([12]; 24 h, read-out: MIC CP 24h): > 500 µM; MIC ([12]; 48 h, read-out: MIC CP 48h): > 500 µM; MIC KP 24h [13]: > 500 µM; MIC KP 48h [13]: > 500 µM; MIC ([14]; Calculated from MIC (μg/mL)): 397 µM; MIC [14]: 125 µg/mL; MIC [15, 22]: > 500 µM; MIC [15, 23]: > 500 µM; MIC ([16]; 24 h, read-out: MIC SA 24h): > 500 µM; MIC ([16]; 48 h, read-out: MIC SA 48h): > 500 µM; MIC [17, 24]: > 500 µM; MIC [17, 25]: > 500 µM; MIC ([18]; 24 h, read-out: MIC CK 24h): > 500 µM; MIC ([18]; 48 h, read-out: MIC CK 48h): > 500 µM; MIC [19]: > 500 µg/mL
O=C(Cc1ccccc1Cl)Nc1cccc(Cl)n1 [Compound 15, 2-(2-chlorophenyl)-N-(6-chloropyridin-2-yl)acetamide] | > 500 | > 500 | > 500 | > 500 | > 500 | > 500 | > 500 | > 500 | > 500 | > 500 | > 500 | > 100 | > 500 | > 500 | > 500 | > 500 | > 500 | > 500 | 500 (≈ 141 µg/mL) | 500 (≈ 141 µg/mL) | MIC ([11]; 24 h, read-out: MIC EC 24h): > 500 µM; MIC ([11]; 48 h, read-out: MIC EC 48h): > 500 µM; MIC ([12]; 24 h, read-out: MIC CP 24h): > 500 µM; MIC ([12]; 48 h, read-out: MIC CP 48h): > 500 µM; MIC KP 24h [13]: > 500 µM; MIC KP 48h [13]: > 500 µM; MIC ([14]; Calculated from MIC (μg/mL)): 111 µM; MIC [14]: 31.2 µg/mL; SI (selectivity index) [14]: > 0.9; MIC [15, 22]: > 500 µM; MIC [15, 23]: > 500 µM; MIC ([16]; 24 h, read-out: MIC SA 24h): > 500 µM; MIC ([16]; 48 h, read-out: MIC SA 48h): > 500 µM; MIC [17, 24]: > 500 µM; MIC [17, 25]: > 500 µM; MIC ([18]; 24 h, read-out: MIC CK 24h): 500 µM (≈ 141 µg/mL); MIC ([18]; 48 h, read-out: MIC CK 48h): 500 µM (≈ 141 µg/mL); MIC [19]: 250 µg/mL (≈ 889 µM)
O=C(Cc1ccc(F)cc1)Nc1cccc(Cl)n1 [Compound 33] | > 500 | > 500 | 500 (≈ 1890 µM) | > 500 | > 500 | > 500 | > 500 | > 500 | > 500 | > 500 | > 500 | 213 | > 500 | > 500 | > 500 | > 500 | > 500 | > 500 | > 500 | > 500 | MIC ([11]; 24 h, read-out: MIC EC 24h): > 500 µM; MIC ([11]; 48 h, read-out: MIC EC 48h): > 500 µM; MIC ([12]; 24 h, read-out: MIC CP 24h): > 500 µM; MIC ([12]; 48 h, read-out: MIC CP 48h): > 500 µM; MIC KP 24h [13]: > 500 µM; MIC KP 48h [13]: > 500 µM; MIC ([14]; Calculated from MIC (μg/mL)): 59 µM; MIC [14]: 15.6 µg/mL; SI (selectivity index) [14]: 3.6; MIC [15, 22]: > 500 µM; MIC [15, 23]: > 500 µM; MIC ([16]; 24 h, read-out: MIC SA 24h): > 500 µM; MIC ([16]; 48 h, read-out: MIC SA 48h): > 500 µM; MIC [17, 24]: > 500 µM; MIC [17, 25]: > 500 µM; MIC ([18]; 24 h, read-out: MIC CK 24h): 31.2 µM (≈ 8.27 µg/mL); MIC ([18]; 48 h, read-out: MIC CK 48h): 62.5 µM (≈ 16.5 µg/mL); MIC [19]: 250 µg/mL (≈ 945 µM)
